Results published in US11045669B2, “Hydroalcoholic extract of Schinus molle, cosmetic compositions comprising the same and cosmetic uses thereof” (ISP INVESTMENTS LLC, priority 2015, dated 2021).

What was measured:
Aquaporin 3 (AQP3) = assay: RT-qPCR expression of AQP3 in NHEK; format: cell-based, human; details: 24 h, CaCl2 1.5 mM
Description: (§1) The potential effects of a hydroethanolic extract of Schinus molle obtained in accordance with Example 2 on skin hydration and barrier function were studied in a model of normal human epidermal keratinocytes (NHEKs) by analysing the expression profile of genes specific to the differentiation of keratinocytes and lipid synthesis by an RT-qPCR (reverse transcription quantitative polymerase chain reaction) method.
(§2) • Cell type: 3rd passage NHEKs • Culture conditions: 37° C., 5% CO2 • Culture medium: keratinocyte SFM (serum free medium) supplemented with • epidermal growth factor (EGF) 0.25 ng/ml • pituitary extract (PE) 25 μg/ml • gentamicin 25 μg/ml • Test medium: keratinocyte SFM supplemented with gentamicin 25 μg/ml Tested Compounds
(§3) The normal human epidermal keratinocytes (NHEKs) were seeded and cultivated in culture medium for 24 hours. […] All the conditions were performed with n=3.
(§4) The expression of the markers was assessed by RT-qPCR on the mRNAs (messenger RNAs) extracted from the cell layers of each treatment (the replicates were pooled before the RNA extraction).
(§5) The analysis of the expression of the genes was performed with n=2 with the aid of 2 “marker quantitative PCR arrays” containing 16 genes, including 2 housekeeping (HK) genes, dedicated to research and adapted to the screening format (mQPA-NHEK-BARRIER-16, product by BIOalternatives®).
(§6) The incorporation of fluorescence in the amplified DNA is measured continuously during the course of the PCR cycles. These measurements make it possible to obtain intensity curves of the fluorescence depending on the PCR cycles and to thus evaluate a value of relative expression (RE) for each marker. The number of cycles is determined on the basis of “exit” points of the fluorescence curves. For the same analysed marker, the later a sample exits (appeared late, after a number of increased cycles), the lower is the initial number of copies of the mRNA.
(§7) The RE (relative expression) value is expressed in arbitrary units (AU) in accordance with the following formula: (½^number of cycles)×10^6 […]

[1] = tested on: Ribosomal protein S28 (RPS28); assay: RT-qPCR expression of RPS28 (housekeeping) in NHEK; format: cell-based, human; details: 24 h, CaCl2 1.5 mM
Description: as §1, §2, §3, §4, §5, §6, §7

[2] = tested on: Sulfotransferase family, cytosolic, 2B, member 1 (SULT2B1); assay: RT-qPCR expression of SULT2B1 in NHEK; format: cell-based, human; details: 24 h, CaCl2 1.5 mM
Description: (§8) The potential effects of a hydroethanolic extract of Schinus molle obtained in accordance with Example 2 on skin hydration and barrier function were studied in a model of normal human epidermal keratinocytes (NHEKs) by analysing the expression profile of genes specific to the differentiation of keratinocytes and lipid synthesis by an RT-qPCR (reverse transcription quantitative polymerase chain reaction) method. […]
as §4, §5
(§9) The incorporation of fluorescence in the amplified DNA is measured continuously during the course of the PCR cycles. These measurements make it possible to obtain intensity curves of the fluorescence depending on the PCR cycles and to thus evaluate a value of relative expression (RE) for each marker. The number of cycles is determined on the basis of “exit” points of the fluorescence curves. […]

Claudin 1 (CLDN1) = assay: RT-qPCR expression of CLDN1 in NHEK; format: cell-based, human; details: 24 h, CaCl2 1.5 mM
Description: as §1, §2, §3, §4, §5, §6, §7

[3] = tested on: Arachidonate 12-lipoxygenase (ALOX12); assay: RT-qPCR expression of ALOX12 in NHEK; format: cell-based, human; details: 24 h, CaCl2 1.5 mM
Description: as §8, §4, §5, §9

[4] = tested on: Hyaluronan synthase 3 (HAS3); assay: RT-qPCR expression of HAS3 in NHEK; format: cell-based, human; details: 24 h, CaCl2 1.5 mM
Description: as §1, §2, §3, §4, §5, §6, §7

[5] = tested on: LAG1 homolog, ceramide synthase 6 (LASS6); assay: RT-qPCR expression of LASS6 in NHEK; format: cell-based, human; details: 24 h, CaCl2 1.5 mM
Description: as §1, §2, §3, §4, §5, §6, §7

[6] = tested on: Glucosidase, beta; acid (GBA); assay: RT-qPCR expression of GBA in NHEK; format: cell-based, human; details: 24 h, CaCl2 1.5 mM
Description: as §1, §2, §3, §4, §5, §6, §7

Involucrin (IVL) = assay: RT-qPCR expression of IVL in NHEK; format: cell-based, human; details: 24 h, CaCl2 1.5 mM
Description: as §8, §4, §5, §9

[7] = tested on: Fatty acid synthase (FASN); assay: RT-qPCR expression of FASN in NHEK; format: cell-based, human; details: 24 h, CaCl2 1.5 mM
Description: as §1, §2, §3, §4, §5, §6, §7

[8] = tested on: Serine palmitoyltransferase, long chain base subunit 1 (SPTLC1); assay: RT-qPCR expression of SPTLC1 in NHEK; format: cell-based, human; details: 24 h, CaCl2 1.5 mM
Description: as §1, §2, §3, §4, §5, §6, §7

Filaggrin (FLG) = assay: RT-qPCR expression of FLG in NHEK; format: cell-based, human; details: 24 h, CaCl2 1.5 mM
Description: as §8, §4, §5, §9

[9] = tested on: UDP-glucose ceramide glucosyltransferase (UGCG); assay: RT-qPCR expression of UGCG in NHEK; format: cell-based, human; details: 24 h, CaCl2 1.5 mM
Description: as §1, §2, §3, §4, §5, §6, §7

[10] = tested on: Acyl-CoA synthetase short-chain family member 2 (ACSS2); assay: RT-qPCR expression of ACSS2 in NHEK; format: cell-based, human; details: 24 h, CaCl2 1.5 mM
Description: as §1, §2, §3, §4, §5, §6, §7

[11] = tested on: Glyceraldehyde-3-phosphate dehydrogenase (GAPDH); details: NHEK, 24 h, CaCl2 1.5 mM
Description: as §1, §2, §3, §4, §5, §6, §7

[12] = tested on: Transglutaminase 1 (TGM1); assay: RT-qPCR expression of TGM1 in NHEK; format: cell-based, human; details: 24 h, CaCl2 1.5 mM
Description: as §8, §4, §5, §9

[13] = tested on: Sphingomyelin phosphodiesterase 1, acid lysosomal (SMPD1); assay: RT-qPCR expression of SMPD1 in NHEK; format: cell-based, human; details: 24 h, CaCl2 1.5 mM
Description: as §1, §2, §3, §4, §5, §6, §7

[Ca+2].[Cl-].[Cl-] [CaCl2, calcium chloride]
AQP3 expression, % Control (GAPDH) (Aquaporin 3 (AQP3)): 110 % Control | AQP3 expression, % Control (RPS28) (Aquaporin 3 (AQP3)): 115 % Control | AQP3 expression, % Control (mean HK) (Aquaporin 3 (AQP3)): 111 % Control | RPS28 expression, % Control (GAPDH) [1]: 96 % Control | RPS28 expression, % Control (RPS28) [1]: 100 % Control | RPS28 expression, % Control (mean HK) [1]: 97 % Control | SULT2B1 expression, % Control (GAPDH) [2]: 244 % Control | SULT2B1 expression, % Control (RPS28) [2]: 254 % Control | CLDN1 expression, % Control (GAPDH) (Claudin 1 (CLDN1)): 145 % Control | CLDN1 expression, % Control (RPS28) (Claudin 1 (CLDN1)): 152 % Control | CLDN1 expression, % Control (mean HK) (Claudin 1 (CLDN1)): 147 % Control | ALOX12 expression, % Control (GAPDH) [3]: 151 % Control | ALOX12 expression, % Control (RPS28) [3]: 158 % Control | HAS3 expression, % Control (GAPDH) [4]: 108 % Control | HAS3 expression, % Control (RPS28) [4]: 112 % Control | HAS3 expression, % Control (mean HK) [4]: 108 % Control | LASS6 expression, % Control (GAPDH) [5]: 103 % Control | LASS6 expression, % Control (RPS28) [5]: 107 % Control | LASS6 expression, % Control (mean HK) [5]: 104 % Control | GBA expression, % Control (GAPDH) [6]: 123 % Control | GBA expression, % Control (RPS28) [6]: 128 % Control | GBA expression, % Control (mean HK) [6]: 124 % Control | IVL expression, % Control (GAPDH) (Involucrin (IVL)): 175 % Control | IVL expression, % Control (RPS28) (Involucrin (IVL)): 183 % Control | FASN expression, % Control (GAPDH) [7]: 105 % Control | FASN expression, % Control (RPS28) [7]: 109 % Control | FASN expression, % Control (mean HK) [7]: 106 % Control | SPTLC1 expression, % Control (GAPDH) [8]: 95 % Control | SPTLC1 expression, % Control (RPS28) [8]: 99 % Control | SPTLC1 expression, % Control (mean HK) [8]: 96 % Control | FLG expression, % Control (GAPDH) (Filaggrin (FLG)): 151 % Control | FLG expression, % Control (RPS28) (Filaggrin (FLG)): 157 % Control | UGCG expression, % Control (GAPDH) [9]: 118 % Control | UGCG expression, % Control (RPS28) [9]: 123 % Control | UGCG expression, % Control (mean HK) [9]: 119 % Control | ACSS2 expression, % Control (GAPDH) [10]: 127 % Control | ACSS2 expression, % Control (RPS28) [10]: 132 % Control | ACSS2 expression, % Control (mean HK) [10]: 128 % Control | GAPDH expression, % Control (GAPDH) [11]: 100 % Control | GAPDH expression, % Control (RPS28) [11]: 104 % Control | GAPDH expression, % Control (mean HK) [11]: 101 % Control | TGM1 expression, % Control (GAPDH) [12]: 274 % Control | TGM1 expression, % Control (RPS28) [12]: 285 % Control | SMPD1 expression, % Control (GAPDH) [13]: 108 % Control | SMPD1 expression, % Control (RPS28) [13]: 113 % Control | SMPD1 expression, % Control (mean HK) [13]: 109 % Control
